Laboratory results from patent US9278068B2, “Vesicle compositions” (Sensulin LLC, priority 2011, dated 2016).

system: NF-κB; assay: NF-κB assay for inflammation (nuclear translocation of NF-κB, immunocytochemistry, PCC); settings: HeLa cells, 40 nM, 2 h; PCC between nuclear and cytoplasmic fraction of NF-κB
Description: 15,000 HeLa cells were plated in 96 well plates the night before the experiments. On the day of the experiments, the cells were treated with the boronic acids (Table 1, below) at three different concentrations (40 nM, 80 nM, and 160 nM) for 2 h. At the end of the incubation, cells were washed with phosphate buffered saline (PBS) and were fixed in 4% paraformaldehyde for 15 min and permeablized with 0.01% Triton X-100 in PBS for 10 min. The cells were washed with PBS three times. Nonspecific sites were blocked with 5% bovine serum albumin (BSA) in PBS and incubated with the Anti-NF-κB for 1 h, followed by incubation with fluorescein isothiocyanate (FITC)-labeled secondary antibody. After washing the cells at the end of the incubation, the cells were treated with 4′,6-diamidino-2-phenylindole (DAPI) for 1 min and kept at 4° C. until further analysis. Images of the cells were acquired with a Beckman-Coulter 100 automated high-throughput microscope system and analyzed using Cytseer software (Vala Sciences, CA). The co-localization of NF-κB was quantified by measuring the PCC between the nuclear and cytoplasmic fraction of the NF-κB molecule. The PCC is a measure of the overlap between the pixel intensities of the nuclear and NF-κB images of the same cell. The PCC values can range from −1 to 1. […] A negative correlation (negative PCC value) indicates an absence of nuclear translocation.

SMILES	Inflammation (PCC) 40 nM
O=Cc1ccc(B(O)O)o1 [5-formyl-2-furanboronic acid]	0.00989
CC(C)[Si](C(C)C)(C(C)C)n1ccc(B(O)O)c1 [1-(triisopropylsilyl)pyrrol-E-3-boronic acid]	−0.0781
N#Cc1ccc(B(O)O)cc1 [4-cyanophenylboronic acid]	−0.0705
Cn1c(B(O)O)cc2ccccc21 [N-methylindole-2-boronic acid]	−0.126
CC(C)(C)OC(=O)n1cccc1B(O)O [N-boc-2-pyrroleboronic acid]	−0.0675
CC(C)OB(CBr)OC(C)C [diisopropyl(bromomethyl)boronate]	−0.0205
CCOc1ccc(B(O)O)cn1 [2-ethoxy-5-pyridine-boronic acid]	−0.1416
OB(O)c1ccnc(Cl)c1 [2-chloropyridine-4-boronic acid]	−0.1195
O=C(O)c1cc(B(O)O)cc([N+](=O)[O-])c1 [3-carboxy-5-nitrophenylboronic acid]	−0.0136
OB(O)c1cncc(Br)c1 [5-bromopyridine-3-boronic acid]	−0.038
OB(O)c1cnc(OCc2ccccc2)nc1OCc1ccccc1 [2,4-bis(benzyloxy)pyrimidine-5-boronic acid]	−0.0647

Continued, values first:

Inflammation (PCC) 40 nM	SMILES
−0.061	Cc1noc(C)c1B(O)O [3,5-dimethylisoxazole-4-boronic acid]
−0.0641	N#Cc1ccccc1B(O)O [2-cyanophenylboronic acid]
−0.0231	N#Cc1cc(B(O)O)ccc1F [3-cyano-4-fluorophenylboronic acid]
−0.0169	COc1ccc(F)cc1B(O)O [5-fluoro-2-methoxyphenylboronic acid]
−0.01	N#Cc1ccc(B(O)O)s1 [5-cyanothiophene-2-boronic acid]

same assay, conditions: HeLa cells, 80 nM, 2 h; PCC between nuclear and cytoplasmic fraction of NF-κB

SMILES	Inflammation (PCC) 80 nM
O=Cc1ccc(B(O)O)o1 [5-formyl-2-furanboronic acid]	−0.0122
CC(C)[Si](C(C)C)(C(C)C)n1ccc(B(O)O)c1 [1-(triisopropylsilyl)pyrrol-E-3-boronic acid]	0.00445
N#Cc1ccc(B(O)O)cc1 [4-cyanophenylboronic acid]	−0.204
Cn1c(B(O)O)cc2ccccc21 [N-methylindole-2-boronic acid]	0.00746
CC(C)(C)OC(=O)n1cccc1B(O)O [N-boc-2-pyrroleboronic acid]	0.05743
CC(C)OB(CBr)OC(C)C [diisopropyl(bromomethyl)boronate]	0.02739
CCOc1ccc(B(O)O)cn1 [2-ethoxy-5-pyridine-boronic acid]	−0.0136
OB(O)c1ccnc(Cl)c1 [2-chloropyridine-4-boronic acid]	0.00374
O=C(O)c1cc(B(O)O)cc([N+](=O)[O-])c1 [3-carboxy-5-nitrophenylboronic acid]	0.03893
OB(O)c1cncc(Br)c1 [5-bromopyridine-3-boronic acid]	0.1311
OB(O)c1cnc(OCc2ccccc2)nc1OCc1ccccc1 [2,4-bis(benzyloxy)pyrimidine-5-boronic acid]	−0.0533

More lines, now with the values ahead:

Inflammation (PCC) 80 nM	SMILES
0.0057	Cc1noc(C)c1B(O)O [3,5-dimethylisoxazole-4-boronic acid]
0.0475	N#Cc1ccccc1B(O)O [2-cyanophenylboronic acid]
0.1014	N#Cc1cc(B(O)O)ccc1F [3-cyano-4-fluorophenylboronic acid]
0.02474	COc1ccc(F)cc1B(O)O [5-fluoro-2-methoxyphenylboronic acid]
0.1051	N#Cc1ccc(B(O)O)s1 [5-cyanothiophene-2-boronic acid]

same assay, conditions: HeLa cells, 160 nM, 2 h; PCC between nuclear and cytoplasmic fraction of NF-κB

SMILES	Inflammation (PCC) 160 nM
O=Cc1ccc(B(O)O)o1 [5-formyl-2-furanboronic acid]	0.1132
CC(C)[Si](C(C)C)(C(C)C)n1ccc(B(O)O)c1 [1-(triisopropylsilyl)pyrrol-E-3-boronic acid]	0.169.
N#Cc1ccc(B(O)O)cc1 [4-cyanophenylboronic acid]	0.4879
Cn1c(B(O)O)cc2ccccc21 [N-methylindole-2-boronic acid]	0.1336
CC(C)(C)OC(=O)n1cccc1B(O)O [N-boc-2-pyrroleboronic acid]	0.1837
CC(C)OB(CBr)OC(C)C [diisopropyl(bromomethyl)boronate]	0.1157
CCOc1ccc(B(O)O)cn1 [2-ethoxy-5-pyridine-boronic acid]	0.1498
OB(O)c1ccnc(Cl)c1 [2-chloropyridine-4-boronic acid]	0
O=C(O)c1cc(B(O)O)cc([N+](=O)[O-])c1 [3-carboxy-5-nitrophenylboronic acid]	0.1227
OB(O)c1cncc(Br)c1 [5-bromopyridine-3-boronic acid]	0.2913
OB(O)c1cnc(OCc2ccccc2)nc1OCc1ccccc1 [2,4-bis(benzyloxy)pyrimidine-5-boronic acid]	0.04709

The next lines start with the values.

Inflammation (PCC) 160 nM	SMILES
−0.01277	Cc1noc(C)c1B(O)O [3,5-dimethylisoxazole-4-boronic acid]
0.104	N#Cc1ccccc1B(O)O [2-cyanophenylboronic acid]
0	N#Cc1cc(B(O)O)ccc1F [3-cyano-4-fluorophenylboronic acid]
0.2936	COc1ccc(F)cc1B(O)O [5-fluoro-2-methoxyphenylboronic acid]
0.2434	N#Cc1ccc(B(O)O)s1 [5-cyanothiophene-2-boronic acid]

system: HeLa cells; assay: MTT assay for cytotoxicity; settings: 40 nM, 2 h
Description: The cytotoxicity of the boronic acid derivatives from Table 1 was studied by MTT assay. 150,000 HeLa cells were plated in 96 well plates on the night before the experiments. On the day of experiments, the cells were treated with the boronic acid derivatives at three different concentrations (40 nM, 80 nM, and 160 nM) for 2 h. At the end of the incubation, MTT assays (In-Vitro toxicology MTT based assay kit, Sigma Aldrich, MO) were performed according to the manufacturer's protocol.

SMILES	MTT (% Cell Survival) 40 nM
O=Cc1ccc(B(O)O)o1 [5-formyl-2-furanboronic acid]	77.18%
CC(C)[Si](C(C)C)(C(C)C)n1ccc(B(O)O)c1 [1-(triisopropylsilyl)pyrrol-E-3-boronic acid]	72.92%
Cc1noc(C)c1B(O)O [3,5-dimethylisoxazole-4-boronic acid]	88.37%
N#Cc1ccc(B(O)O)cc1 [4-cyanophenylboronic acid]	60.40%
Cn1c(B(O)O)cc2ccccc21 [N-methylindole-2-boronic acid]	63.3131%
N#Cc1ccccc1B(O)O [2-cyanophenylboronic acid]	117.42%
N#Cc1cc(B(O)O)ccc1F [3-cyano-4-fluorophenylboronic acid]	89.30%
COc1ccc(F)cc1B(O)O [5-fluoro-2-methoxyphenylboronic acid]	84.22%
CC(C)(C)OC(=O)n1cccc1B(O)O [N-boc-2-pyrroleboronic acid]	60.6873%
CC(C)OB(CBr)OC(C)C [diisopropyl(bromomethyl)boronate]	81.27%
CCOc1ccc(B(O)O)cn1 [2-ethoxy-5-pyridine-boronic acid]	81.40%
OB(O)c1ccnc(Cl)c1 [2-chloropyridine-4-boronic acid]	84.93%
O=C(O)c1cc(B(O)O)cc([N+](=O)[O-])c1 [3-carboxy-5-nitrophenylboronic acid]	54.3094%
N#Cc1ccc(B(O)O)s1 [5-cyanothiophene-2-boronic acid]	80.56%
OB(O)c1cncc(Br)c1 [5-bromopyridine-3-boronic acid]	134.748%
OB(O)c1cnc(OCc2ccccc2)nc1OCc1ccccc1 [2,4-bis(benzyloxy)pyrimidine-5-boronic acid]	100.05%

same assay, conditions: 80 nM, 2 h

SMILES	MTT (% Cell Survival) 80 nM
O=Cc1ccc(B(O)O)o1 [5-formyl-2-furanboronic acid]	94.08%
CC(C)[Si](C(C)C)(C(C)C)n1ccc(B(O)O)c1 [1-(triisopropylsilyl)pyrrol-E-3-boronic acid]	65.92%
Cc1noc(C)c1B(O)O [3,5-dimethylisoxazole-4-boronic acid]	90.63%
N#Cc1ccc(B(O)O)cc1 [4-cyanophenylboronic acid]	63.69%
Cn1c(B(O)O)cc2ccccc21 [N-methylindole-2-boronic acid]	63.6075%
N#Cc1ccccc1B(O)O [2-cyanophenylboronic acid]	62.63%
N#Cc1cc(B(O)O)ccc1F [3-cyano-4-fluorophenylboronic acid]	60.46%
COc1ccc(F)cc1B(O)O [5-fluoro-2-methoxyphenylboronic acid]	84.22%
CC(C)(C)OC(=O)n1cccc1B(O)O [N-boc-2-pyrroleboronic acid]	51.264%
CC(C)OB(CBr)OC(C)C [diisopropyl(bromomethyl)boronate]	96.62%
CCOc1ccc(B(O)O)cn1 [2-ethoxy-5-pyridine-boronic acid]	69.58%
OB(O)c1ccnc(Cl)c1 [2-chloropyridine-4-boronic acid]	58.47%
O=C(O)c1cc(B(O)O)cc([N+](=O)[O-])c1 [3-carboxy-5-nitrophenylboronic acid]	46.2431%
N#Cc1ccc(B(O)O)s1 [5-cyanothiophene-2-boronic acid]	40.00%
OB(O)c1cncc(Br)c1 [5-bromopyridine-3-boronic acid]	37.2764%
OB(O)c1cnc(OCc2ccccc2)nc1OCc1ccccc1 [2,4-bis(benzyloxy)pyrimidine-5-boronic acid]	89.04%

same assay, conditions: 160 nM, 2 h

SMILES	MTT (% Cell Survival) 160 nM
O=Cc1ccc(B(O)O)o1 [5-formyl-2-furanboronic acid]	50.14%
CC(C)[Si](C(C)C)(C(C)C)n1ccc(B(O)O)c1 [1-(triisopropylsilyl)pyrrol-E-3-boronic acid]	56.94%
Cc1noc(C)c1B(O)O [3,5-dimethylisoxazole-4-boronic acid]	42.89%
N#Cc1ccc(B(O)O)cc1 [4-cyanophenylboronic acid]	54.22%
Cn1c(B(O)O)cc2ccccc21 [N-methylindole-2-boronic acid]	47.46%
N#Cc1ccccc1B(O)O [2-cyanophenylboronic acid]	60.33%
N#Cc1cc(B(O)O)ccc1F [3-cyano-4-fluorophenylboronic acid]	47.56%
COc1ccc(F)cc1B(O)O [5-fluoro-2-methoxyphenylboronic acid]	54.92%
CC(C)(C)OC(=O)n1cccc1B(O)O [N-boc-2-pyrroleboronic acid]	39.41%
CC(C)OB(CBr)OC(C)C [diisopropyl(bromomethyl)boronate]	79.32%
CCOc1ccc(B(O)O)cn1 [2-ethoxy-5-pyridine-boronic acid]	33.80%
OB(O)c1ccnc(Cl)c1 [2-chloropyridine-4-boronic acid]	56.36%
O=C(O)c1cc(B(O)O)cc([N+](=O)[O-])c1 [3-carboxy-5-nitrophenylboronic acid]	33.3%
N#Cc1ccc(B(O)O)s1 [5-cyanothiophene-2-boronic acid]	44.78%
OB(O)c1cncc(Br)c1 [5-bromopyridine-3-boronic acid]	30.04%
OB(O)c1cnc(OCc2ccccc2)nc1OCc1ccccc1 [2,4-bis(benzyloxy)pyrimidine-5-boronic acid]	74.74%
